Data from ChEMBL document CHEMBL5236632, “Membrane-Active Nonivamide Derivatives as Effective Broad-Spectrum Antimicrobials: Rational Design, Synthesis, and Biological Evaluation” (J Med Chem, 2022).
In brackets after ≈: the same amount, converted by molar mass. Activity calls are given as the source filed them. The rule behind the calls is not given here.

What was measured:
Staphylococcus aureus [1] = assay: Antibacterial activity against methicillin-resistant Staphylococcus aureus NCTC 10442 assessed as inhibition of visible growth measured after 18 to 24 hrs by broth dilution method; assay type: functional; settings: time 18-24 hrs
Staphylococcus aureus [2] = assay: Antibacterial activity against methicillin-resistant Staphylococcus aureus N315 assessed as inhibition of visible growth measured after 18 to 24 hrs in presence of 3220 ug/ml Na+ by broth dilution method; assay type: functional; settings: time 18-24 hrs
Klebsiella pneumoniae [3] = assay: Antibacterial activity against Klebsiella pneumoniae ATCC 10031 assessed as inhibition of visible growth measured after 18 to 24 hrs in presence of 100 ug/ml Ca2+ by broth dilution method; assay type: functional; settings: time 18-24 hrs
Escherichia coli [4] = assay: Inhibition of biofilm formation Escherichia coli ATCC 25922 assessed as decrease in biofilm formation at 3.13 ug/ml measured after 24 hrs by crystal violet staining assay; assay type: functional
Klebsiella pneumoniae [5] = assay: Antibacterial activity against Klebsiella pneumoniae ATCC 10031 assessed as inhibition of visible growth measured after 18 to 24 hrs in presence of 3220 ug/ml Na+ by broth dilution method; assay type: functional; settings: time 18-24 hrs
Escherichia coli [6] = assay: Antibacterial activity against Escherichia coli […] assessed as inhibition of visible growth measured after 18 to 24 hrs in presence of 3220 ug/ml Na+ by broth dilution method; assay type: functional; settings: time 18-24 hrs
Cell membrane [7] = assay: Induction of membrane integrity disruption in methicillin-resistant Staphylococcus aureus NCTC 10442 assessed as increase fluoresence intensity at 4 to 8 times of MIC measured for 60 mins by SYTOX Green uptake assay; assay type: subcellular
Lipopolysaccharide (LPS) [8] = assay: Displacement of BODIPY-TR-cadaverin from Escherichia coli lipopolysaccharide at MIC concentration incubated for 30 mins by fluorescence based analysis
[9] = Selectivity ratio, HC50 for hemolytic activity in rabbit RBC to MIC for antibacterial activity against methicillin-resistant Staphylococcus aureus NCTC 10442; assay type: toxicity; settings: rabbit red blood cells
Cell membrane [10] = assay: Induction of membrane integrity disruption in Staphylococcus aureus ATCC 29213 assessed as increase fluoresence intensity at 4 to 8 times of MIC measured for 60 mins by SYTOX Green uptake assay; assay type: subcellular
Lipopolysaccharide (LPS) [11] = assay: Displacement of BODIPY-TR-cadaverin from Escherichia coli lipopolysaccharide at 8 times of MIC incubated for 30 mins by fluorescence based analysis
Staphylococcus aureus [12] = assay: Drug resistance development in Staphylococcus aureus ATCC 29213 assessed as fold change in MIC measured after 20 passages; assay type: functional
Staphylococcus aureus [13] = assay: In vivo antibacterial activity against Staphylococcus aureus ATCC 29213 infected in C57BL/6 mouse keratitis model assessed as reduction in number of viable bacterial colonies in infected cornea at 5 mg/kg topically 4 times per day for 3 consecutive days; assay type: functional; settings: route top, time 3 day
[14] = Selectivity ratio, HC50 for hemolytic activity in rabbit RBC to MIC for antibacterial activity against Pseudomonas aeruginosa ATCC 9027; assay type: toxicity; settings: rabbit red blood cells
[15] = Selectivity ratio, HC50 for hemolytic activity in rabbit RBC to MIC for antibacterial activity against Acinetobacter baumannii R2889; assay type: toxicity; settings: rabbit red blood cells
Klebsiella pneumoniae [16] = assay: Antibacterial activity against Klebsiella pneumoniae ATCC 10031 assessed as inhibition of visible growth measured after 18 to 24 hrs by broth dilution method; assay type: functional; settings: time 18-24 hrs
Cell membrane [17] = assay: Induction of membrane depolarization in Escherichia coli ATCC 25922 assessed as increase in fluorescence intensity at 4 to 8 times MIC measured for 60 mins by DiSC3(5) dye based fluorescence method; assay type: subcellular
[18] = Selectivity ratio, HC50 for hemolytic activity in rabbit RBC to MIC for antibacterial activity against methicillin-resistant Staphylococcus aureus N315; assay type: toxicity; settings: rabbit red blood cells
[19] = Cytotoxicity against HEK293 cells assessed as cell viability after 24 hrs incubation byCCK-8 assay; assay type: toxicity, cell-based; settings: human
Staphylococcus aureus [20] = assay: Antibacterial activity against methicillin-resistant Staphylococcus aureus N315 assessed as inhibition of visible growth measured after 18 to 24 hrs by broth dilution method; assay type: functional; settings: time 18-24 hrs
Escherichia coli [21] = assay: Eradication of biofilm in Escherichia coli ATCC 25922 assessed as biofilm viability at […] ug/ml measured after 24 hrs by crystal violet staining assay; assay type: functional; settings: dose […] microg/ml, 1.56 ug/mL
Cell membrane [22] = assay: Induction of membrane integrity disruption in Escherichia coli ATCC 25922 assessed as increase fluoresence intensity at 4 to 8 times of MIC measured for 60 mins by SYTOX Green uptake assay; assay type: subcellular
Escherichia coli [23] = assay: Inhibition of biofilm formation Escherichia coli ATCC 25922 assessed as decrease in biofilm formation at 0.39 ug/ml measured after 24 hrs by crystal violet staining assay; assay type: functional
Escherichia coli [24] = assay: Eradication of biofilm in Escherichia coli ATCC 25922 assessed as biofilm viability at 25 ug/ml measured after 24 hrs by crystal violet staining assay; assay type: functional; settings: dose 25 µg/ml
Staphylococcus aureus [25] = assay: Antibacterial activity against methicillin-resistant Staphylococcus aureus N315 assessed as inhibition of visible growth measured after 18 to 24 hrs in presence of 24.3 ug/ml Mg2+ by broth dilution method; assay type: functional; settings: time 18-24 hrs
Staphylococcus aureus [26] = assay: Antibacterial activity against methicillin-resistant Staphylococcus aureus NCTC 10442 assessed as inhibition of visible growth measured after 18 to 24 hrs in presence of 100 ug/ml Ca2+ by broth dilution method; assay type: functional; settings: time 18-24 hrs
Staphylococcus aureus [27] = assay: Antibacterial activity against methicillin-resistant Staphylococcus aureus NCTC 10442 assessed as inhibition of visible growth measured after 18 to 24 hrs in presence of 3220 ug/ml Na+ by broth dilution method; assay type: functional; settings: time 18-24 hrs
Pseudomonas aeruginosa = assay: In vivo antibacterial activity against Pseudomonas aeruginosa ATCC 9027 infected in C57BL/6 mouse keratitis model assessed as reduction in number of viable bacterial colonies in infected cornea at 5 mg/kg topically 4 times per day for 3 consecutive days; assay type: functional; settings: route top, time 3 day
Escherichia coli [28] = assay: Eradication of biofilm in Escherichia coli ATCC 25922 assessed as biofilm viability at 6.25 ug/ml measured after 24 hrs by crystal violet staining assay; assay type: functional; settings: dose 6.25 µg/ml
Escherichia coli [29] = assay: Eradication of biofilm in Escherichia coli ATCC 25922 assessed as biofilm viability at 0.78 ug/ml measured after 24 hrs by crystal violet staining assay; assay type: functional; settings: dose 0.78 µg/ml
Staphylococcus aureus [30] = assay: Displacement of BODIPY-TR-cadaverin from Staphylococcus aureus lipoteichoic acid at 8 times of MIC incubated for 30 mins by fluorescence based analysis
Cell membrane [31] = assay: Induction of outer membrane permeability in Escherichia coli ATCC 25922 assessed as increase fluoresence intensity at 4 to 8 times of MIC measured for 60 mins by NPN uptake assay; assay type: subcellular
Staphylococcus aureus [32] = assay: Inhibition of biofilm formation Staphylococcus aureus ATCC 29213 assessed as decrease in biofilm formation at 0.20 ug/ml measured after 24 hrs by crystal violet staining assay; assay type: functional
[33] = Selectivity ratio, HC50 for hemolytic activity in rabbit RBC to MIC for antibacterial activity against Klebsiella pneumoniae ATCC 14581; assay type: toxicity; settings: rabbit red blood cells
Acinetobacter baumannii = assay: Antibacterial activity against Acinetobacter baumannii R2889 assessed as inhibition of visible growth measured after 18 to 24 hrs by broth dilution method; assay type: functional; settings: time 18-24 hrs
Escherichia coli [34] = assay: Eradication of biofilm in Escherichia coli ATCC 25922 assessed as biofilm viability at 3.13 ug/ml measured after 24 hrs by crystal violet staining assay; assay type: functional; settings: dose 3.13 µg/ml

`CCCCCCCCC(=O)NCc1ccc(OCCCCCCNC(=N)N)c(OCCCCCCNC(=N)N)c1` showed an MIC (Staphylococcus aureus [1]) of 0.39 µg/mL (≈ 0.694 µM), an MIC (Staphylococcus aureus [2]) of 0.39 µg/mL and an MIC (Klebsiella pneumoniae [3]) of 3.12 µg/mL. The inhibition at 3.13 µg/mL (Escherichia coli [4]) was 106%, the MIC (Klebsiella pneumoniae [5]) was 1.56 µg/mL and the MIC (Escherichia coli [6]) was 1.56 µg/mL. For the same compound, the Activity (Cell membrane [7]) was “Active”, the Activity (Lipopolysaccharide (LPS) [8]) was 56.4% and the selectivity ratio [9] was 173. The Activity (Cell membrane [10]) was “Active”, the Activity (Lipopolysaccharide (LPS) [11]) was 103% and the “fold change (FC)” value (Staphylococcus aureus [12]) was under 4. It also gave an Activity (Staphylococcus aureus [13]) of 6.5 log10CFU/ml, a selectivity ratio [14] of 21.6 and a selectivity ratio [15] of 21.6. For the same compound, the MIC (Klebsiella pneumoniae [16]) was 1.56 µg/mL (≈ 2.78 µM), the Activity (Cell membrane [17]) was “Active” and the selectivity ratio [18] was 173. For the same compound, the CC50 at 24 h [19] was 27.8 µg/mL (≈ 49.5 µM), the MIC (Staphylococcus aureus [20]) was 0.39 µg/mL (≈ 0.694 µM) and the Activity (Escherichia coli [21]) was 93.71%. For the same compound, the Activity (Cell membrane [22]) was “Active”, the inhibition at 0.39 µg/mL (Escherichia coli [23]) was 85.1% and the Activity (Escherichia coli [24]) was 7.05%. The MIC (Staphylococcus aureus [25]) was 0.39 µg/mL, the MIC (Staphylococcus aureus [26]) was 0.39 µg/mL and the MIC (Staphylococcus aureus [27]) was 0.39 µg/mL. The Activity (Pseudomonas aeruginosa) was 4.69 log10CFU/ml, the Activity (Escherichia coli [28]) was 22.66% and the Activity (Escherichia coli [29]) was 90.23%. The Activity (Staphylococcus aureus [30]) was 38.4%, the Activity (Cell membrane [31]) was “Dose-Dependent Effect” and the inhibition at 0.2 µg/mL (Staphylococcus aureus [32]) was 62.3%. For the same compound, the selectivity ratio [33] was 21.6, the MIC (Acinetobacter baumannii) was 6.25 µg/mL (≈ 11.1 µM) and the Activity (Escherichia coli [34]) was 38.07%.
